In US12599588B2, “Inhibitor for V-ATPase activity, antibacterial agent, medicine, antibacterial method and screening method” (Japan Science and Technology Agency, priority 2019, dated 2026):
Like-named read-outs stand apart in the source and are kept apart here.

Assays:
[1] = system: enterococci (Enterococcus hirae); assay: Growth experiment of enterococci (secondary screening), OD600 at pH 7.0 and pH 8.5; type: cell-based; design: Growth inhibition rate (%): concentration or dose not given beside the values; settings: for Specificity: growth inhibition at pH 8.5 versus pH 7.0
Method: In the culture of enterococci (Enterococcus hirae), a culture medium in which the Na^+ concentration had been adjusted by adding a buffer solution using 2% tryptone and 1% yeast extract as the base was used. In a case of adding glucose, glucose prepared in a 50% solution was added so as to be 1% into the culture medium when the culture medium was used. The whole amount 200 μL was cultured using a 96-well plate, and OD600 was measured every hour by using a plate reader. By using culture media at pH 7.0 and pH 8.5, the effect of pH on the growth was observed. In culture of bacteria, the pH often fluctuates largely due to the decomposition of the sugars required for the growth, and it is extremely important to maintain a constant pH in this experiment, and therefore, the pH was maintained constant with the addition of a buffer suitable for each pH. Since the V-ATPase is expressed only under an alkaline condition, the growth inhibition observed with the addition of an inhibitor is largely dependent on the pH.
IC50 and the like of the above 24 kinds of compounds are described in the following table. […] Furthermore, with respect to the symbol “n.a.”, a compound having a growth inhibition rate of 60% or more at pH 7.0 is determined that there was the growth inhibition. In addition, the growth inhibition rate of a compound having no clear inhibition is also recorded for reference.

[2] = target: T1, V-ATPase (purified from enterococci or recombinant E. coli) (Enterococcus hirae, UniProt P43439+P43457); assay: ATPase activity measurement (molybdenum blue method, primary screening); type: biochemical
T1 construct: made in house; host or cells: Enterococcus hirae (native) or recombinant E. coli
Method: The ATPase activity can be measured by a molybdenum blue method for measuring absorbance of the inorganic phosphoric acid generated by hydrolysis of ATP. As the reaction conditions, conditions for measuring the ATPase activity can be adopted. As the buffer solution used in the reaction, Tris-HCl buffer can be used. The reaction time is usually 10 to 60 minutes, but can be appropriately adjusted depending on the air temperature or the like. The reaction of V-ATPase is terminated with the addition of a surfactant such as sodium dodecyl sulfate (SDS), and into which a color-developing liquid (such as ferrous sulfate) is added to give a color, and then the concentration of the inorganic phosphoric acid can be calculated by the measurement of the absorbance at a wavelength of 650 nm.
From the concentration of inorganic phosphoric acid calculated above, the inhibition rate of the V-ATPase reaction can be calculated. That is, a graph is created in which the inhibition rate is plotted on the vertical axis and the concentration of compound is plotted on the horizontal axis, and the concentration (IC50) at which the inhibition rate becomes 50% is determined. As the concentration of compound at which IC50 is obtained becomes lower, a higher V-ATPase inhibitory effect is exerted with a small amount, and accordingly, the compound can be taken as a candidate compound for the inhibitor for V-ATPase activity.
The V-ATPase was prepared by the method disclosed in the following papers. • Paper 1: Takeshi Murata, et. al, “Purification and Reconstitution of Na^+-translocating Vacuolar ATPase from Enterococcus hirae”, J. Biol. Chem. 272, 24885-24890 (1997) • Paper 2: Takeshi Murata, et. al, “Torque Generation of Enterococcus hirae V-ATPase”, J. Biol. Chem. 289, 31212-31223 (2014)
ATPase activity measurement was conducted by a molybdenum blue method that quantifies the inorganic phosphoric acid generated by hydrolysis of ATP with the use of absorbance measurement. The measurement was conducted in a 96-well plate, and 0.05% DDM (n-dodecyl-β-D-maltoside), 10 μg/mL of V-ATPase (purified from enterococci or recombinant E. coli), and 20 μM of a compound were added into a buffer (100 mM Tris-HCl at pH 8.5, 100 mM NaCl, 5 mM MgSO4, 10% glycerol). Into the mixture obtained above, ATP was added so as to be 5 mM, the whole amount was set to 100 μL, the reaction was started while stirring the mixture with a stirrer, and the reaction time was set to 30 minutes. Since the ATPase activity changes largely depending on the reaction temperature, the reaction time was adjusted within the range of 10 to 60 minutes corresponding to the air temperature on the day of the experiment. With the addition of 50 μL of 20% SDS, the V-ATPase was denatured and the reaction was terminated, and into the resultant mixture, 75 μL of color-developing liquid (5% ferrous sulfate, 1.6% ammonium molybdate, and 1 M sulfuric acid) was added to give a color. Immediately, the absorbance at a wavelength of 650 nm was measured by using a plate reader. Four kinds of KH2PO4 aqueous solutions of 0.2 mM, 0.5 mM, 1.0 mM, and 1.5 mM were reacted with MQ (ultrapure water) in the same experiment system, and then the activity of V-ATPase was measured by determining the concentration of generated inorganic phosphoric acid with the use of a created calibration curve. In this regard, a compound that had inhibited 50% or more of the activity of V-ATPase was diluted stepwisely so as to have a concentration of 10 μM, 5 μM, 2 μM, 1 μM, 500 nM, 200 nM, 100 nM, and 50 nM, and the measurement similar to the above was conducted.
From the results of the above measurement of ATPase activity, the inhibition rate was calculated comparing the decrease in the activity by assuming the activity under the condition of no compound addition as 100. A graph was created in which the inhibition rate was plotted on the vertical axis and the concentration of compound was plotted on the horizontal axis (FIG. 2). […]

[3] = Table 2, E. hirae growth, pH not stated (media pH 7.0 and pH 8.5)
[4] = IC50 (nM), Table 2, inhibition of V-ATPase ATPase activity, pH 8.5 buffer
[5] = high affinity for V-ATPase (IC50), unit inferred
[6] = Table 2, inhibition of V-ATPase ATPase activity, pH 8.5 buffer, read-out: IC50
[7] = Table 4, (1,2,4-oxadiazol-3-yl)phenyl derivatives
[8] = IC50 (nM), Table 4, (1,2,4-oxadiazol-3-yl)phenyl derivatives
[9] = Table 3, 2-phenyl benzimidazole derivatives
[10] = Table 3, 2-phenyl benzimidazole derivatives, read-out: IC50

| SMILES | Growth inhibition rate (%) [1, 3] [%] | Specificity ([1]; Table 2) | IC50 [2, 4] [nM] | IC50 [2, 6] [nM] | also measured |
| --- | --- | --- | --- | --- | --- |
| O=C1N=C(NC2CCCC2)S/C1=C\c1ccc(OC(F)F)cc1OC(F)F [Compound V-6, (Z)-5-(2,4-bis(difluoromethoxy)benzylidene)-2-(cyclopentylamino) thiazol-4 (5H)-one] | 77.9 | + (there was no growth inhibition at pH 7.0 but was the growth inhibition at pH 8.5) | 80 | – | non-specific inhibition / non-specific bond [1]: no non-specific inhibition; IC50 [2, 5]: ≤ 400 nM |
| CN(C)C(=S)N/N=C1\C(=O)C(c2ccccc2)(c2ccccc2)c2ccccc21 [Compound V-150] | 70.4 | n.a. (there was the growth inhibition in any case) | – | 500 | – |
| N=C(N)Nc1nc(-c2ccccc2)c2cc(F)ccc2n1 [Compound V-171] | 85.6 | + (there was no growth inhibition at pH 7.0 but was the growth inhibition at pH 8.5) | – | 2500 | – |
| CCCOc1ccc(/C=N/NC(=N)N)c(OCCC)c1 [Compound V-189] | 91.2 | + (there was no growth inhibition at pH 7.0 but was the growth inhibition at pH 8.5) | – | 4500 | – |
| CCCCC#Cc1cncc(C(=O)N/N=C/c2cccs2)c1 [Compound V-99] | 6.7 | − (there was no growth inhibition in any case) | – | 2500 | – |
| O=C1N=C(O)N=C(O)C1=Cc1ccc(-c2ccc([N+](=O)[O-])cc2)o1 [Compound V-278] | 44.4 | + (there was no growth inhibition at pH 7.0 but was the growth inhibition at pH 8.5) | 250 | – | – |
| Cc1ccccc1OCc1nc(-c2ccc(NC(=O)c3cccs3)cc2)no1 [Compound V-234, N-(4-(5-((o-tolyloxy)methyl)-1,2,4-oxadiazol-3-yl)phenyl)thiophene-2-carboxamide] | 75.5 | + (there was no growth inhibition at pH 7.0 but was the growth inhibition at pH 8.5) | 40 | – | non-specific inhibition / non-specific bond [1]: no non-specific inhibition; Growth inhibition rate (%) [1, 7]: 75.5%; IC50 [2, 8]: 40 nM; IC50 [2, 5]: ≤ 400 nM |
| CC1=C(/C=C/C(C)=C/C=C/C(C)=C/C(=O)Nc2ccc(O)cc2)C(C)(C)CCC1 [Compound V-84, (2E,4E,6E,8E)-N-(4-hydroxyphenyl)-3,7-dimethyl-9-(2,6,6-trimethylcyclohexyl-1-en-1-yl)nona-2,4,6,8-tetraeneamide] | 90.6 | − (there was no growth inhibition in any case) | 80 | – | non-specific inhibition / non-specific bond [1]: non-specific inhibition; IC50 [2, 5]: ≤ 400 nM |
| Cc1ccc2[nH]c(-c3ccc(Br)cc3)nc2c1 [Compound V-161-03] | – | – | – | – | Growth inhibition rate (%) [1, 9]: 89.8%; Specificity ([1]; Table 3): + (there was no growth inhibition at pH 7.0 but was the growth inhibition at pH 8.5); IC50 [2, 10]: 120 nM |
| CC(Cc1ccc(O)c(O)c1)C(C)Cc1ccc(O)c(O)c1 (centres unmarked) [Compound V-115] | 0.3 | − (there was no growth inhibition in any case) | 400 | – | – |
| Cc1ccc2[nH]c(-c3ccc(I)cc3)nc2c1 [Compound V-161-04] | – | – | – | – | Growth inhibition rate (%) [1, 9]: 90.3%; Specificity ([1]; Table 3): + (there was no growth inhibition at pH 7.0 but was the growth inhibition at pH 8.5); IC50 [2, 10]: 120 nM |
| CCCOc1ccc(/C=N/Nc2nc3ccccc3[nH]2)c(OCCC)c1 [Compound V-289] | 55.0 | + (there was no growth inhibition at pH 7.0 but was the growth inhibition at pH 8.5) | – | 600 | – |
| COc1ccc(-c2nc3cc(C)ccc3[nH]2)cc1 [Compound V-161-10] | – | – | – | – | Growth inhibition rate (%) [1, 9]: 86.8%; Specificity ([1]; Table 3): + (there was no growth inhibition at pH 7.0 but was the growth inhibition at pH 8.5); IC50 [2, 10]: 120 nM |
| Cc1cccc(OCc2nc(-c3ccc(NC(=O)c4cccs4)cc3)no2)c1C [Compound V-234-02] | – | – | – | – | Growth inhibition rate (%) [1, 7]: 74.8%; IC50 [2, 8]: 40 nM |
| Cc1ccc(C(=O)Nc2ccc(-c3noc(COc4cccc(C)c4C)n3)cc2)s1 [Compound V-234-03] | – | – | – | – | Growth inhibition rate (%) [1, 7]: 72.0%; IC50 [2, 8]: 6 nM |
| O=C(NC(c1ccccc1)c1cc([N+](=O)[O-])c2cccnc2c1O)C1CCCCC1 (centres unmarked) [Compound V-157] | 84.2 | n.a. (there was the growth inhibition in any case) | – | 2000 | – |
| COc1ccc(C(=O)N/N=C/C(C)=C/c2ccc(C(C)C)cc2)cc1 [Compound V-153] | 13.3 | − (there was no growth inhibition in any case) | – | 1000 | – |
| CC(C)CN(CC(C)C)c1ccc([N+](=O)[O-])cc1/C=N/Nc1ccccc1 [Compound V-105] | 90.8 | n.a. (there was the growth inhibition in any case) | – | 1000 | – |
| CCOc1ccc2nc3cc(N)ccc3c(N)c2c1 [Compound V-170] | 49.7 | + (there was no growth inhibition at pH 7.0 but was the growth inhibition at pH 8.5) | – | 10000 | – |
| COc1ccc(C(c2ccc3cccnc3c2O)N2CCOCC2)cc1 (centres unmarked) [Compound V-201] | 19.6 | − (there was no growth inhibition in any case) | – | 4000 | – |
| CCCCCCCCCOc1ccc(C=C2C(=O)NC(=O)NC2=O)cc1 [Compound V-130, 5-(4-(nonyloxy)benzylidene)pyrimidine-2,4,6 (1H,3H,5H)-trione] | 88.2 | − (there was no growth inhibition in any case) | 20 | – | non-specific inhibition / non-specific bond [1]: non-specific inhibition; IC50 [2, 5]: ≤ 400 nM |
| CC1(C)CC2(CC(C)(C)c3cc(O)c(O)cc32)c2cc(O)c(O)cc21 [Compound V-124] | 49.2 | + (there was no growth inhibition at pH 7.0 but was the growth inhibition at pH 8.5) | – | 300 | – |
| CCCCCOc1ccc(NC(=O)c2cccs2)cc1 [Compound V-103] | 45.3 | + (there was no growth inhibition at pH 7.0 but was the growth inhibition at pH 8.5) | 100 | – | – |
